Here are results for eight compounds from patent US9284423B2, “Crosslinkable composition crosslinkable by real michael addition (RMA) reaction” (NUPLEX RESINS B.V., priority 2011, dated 2016).

Series [1] can be described thus: Determination of Michael addition reactivity (Example 12): loss of X-H component in butyl acrylate/methanol at room temperature, by back-titration (GC for dimethylmalonate). The format is physicochemical. Conditions: for Relative conversion rates (relative Michael addition reactivity: initial increase in % conversion, per minute): with strong base, same method as for succinimide; for Succinimide remaining (%): strong base (tetrabutylammonium hydroxide) added, % relative to theoretical level. As to the method: Subsequently, the concentration of succinimide is determined as a function of time by taking samples, neutralizing with a known excess of HCl in water, and backtitration with a KOH solution. […] Succinimide concentration is expressed as % relative to the theoretical level based on used amounts.

The conditions of series [2]: pKa defined in aqueous environment; cited from earlier work.
[3] abbreviates: butyl acrylate/methanol, room temperature.

In general, pKa refers to the pH at which an ionisable group is half protonated.

Regarding `c1nc[nH]n1` [1,2,4-triazole], the “Relative conversion rates (relative Michael addition reactivity: initial increase in % conversion, per minute)” value in series [1] (setting [3]) is reported as 0.91 % conversion, per minute.
With `O=C1CCC(=O)N1` [succinimide], the “Succinimide acidic protons consumed” value in series [1] (in about an hour, [succinimide]/[base]=5) was found to be 25%. The “Succinimide remaining (%)” value in series [1] (time 3 min, [succinimide]/[base]=5, butyl acrylate/methanol, room temperature) came out at 99%; in series [1] (time 30 min, [succinimide]/[base]=5, butyl acrylate/methanol, room temperature) it was 87%; in series [1] (time 60 min, [succinimide]/[base]=5, butyl acrylate/methanol, room temperature), 77%; in series [1] (time 120 min, [succinimide]/[base]=5, butyl acrylate/methanol, room temperature), 60%; in series [1] (time 180 min, [succinimide]/[base]=5, butyl acrylate/methanol, room temperature), 48%. The “Relative conversion rates (relative Michael addition reactivity: initial increase in % conversion, per minute)” value in series [1] (setting [3]) is reported as 0.33 % conversion, per minute. The “Loss of succinimide N-H without base initiation” value in series [1] (without base, butyl acrylate/methanol, room temperature, two weeks) is reported as “no significant loss”.
As to `CC1(C)NC(=O)NC1=O` [5,5-dimethylhydantoin], the “Relative conversion rates (relative Michael addition reactivity: initial increase in % conversion, per minute)” value in series [1] (setting [3]) is recorded as 0.03 % conversion, per minute. For the same compound, the pKa in series [2] is reported as 10.2.
Consider `c1ccc2[nH]nnc2c1` [benzotriazole], for which the “Relative conversion rates (relative Michael addition reactivity: initial increase in % conversion, per minute)” value in series [1] (setting [3]) is listed as 0.29 % conversion, per minute. Moreover, in series [2], the pKa is reported as 8.2.
As to `O=C1Nc2ccccc2C1=O` [isatine], the pKa in series [2] is 10.3.
With `O=c1cc[nH]c(=O)[nH]1` [uracil], the pKa in series [2] is reported as 9.9.
Consider `CCOC(=O)CC(=O)OCC` [diethylmalonate], for which, in series [2], the pKa is reported as 13.0.
Regarding `C[N+](=O)[O-]` [nitromethane], the pKa in series [2] is recorded as 10.2.
